Earlier results on two compounds are cited in patent publication US20150299754A1, “STREPTOMYCES MICROFLAVUS STRAINS AND METHODS OF THEIR USE TO CONTROL PLANT DISEASES AND PESTS” (Bayer CropScience LP, priority 2014, published 2015).

In series [1] the test system is powdery mildew. To be noted: according to GB 1 507 193.
Series [2] relates to gram-positive, gram-negative bacteria and tubercule bacillus. To be noted: according to U.S. Pat. No. 3,849,398.
Series [3] has as its system parasites on animals, such as pin worm. To be noted: according to U.S. Pat. No. 3,849,398.

For the compound `NC(N)=NCC(O)CC(O)(C(=O)O)[C@H]1O[C@@H](n2cc(CO)c(N)nc2=O)C=C[C@@H]1NC(=O)[C@@H](N)CO` (stereo partly drawn) [B-98891], the “antifungal activity against powdery mildew” value in series [1] was “antifungal activity”.

`CNCC(=O)NC(CO)C(=O)NC1C(C(N)=O)OC(n2ccc(N)nc2=O)C(O)C1O` (stereo not drawn) [gougerotin]: the antibacterial activity entry in series [2] is reported as “weak antibacterial activity”. Moreover, in series [3], the parasiticidal action result is “parasiticidal action”.
